Measurements from PubChem BioAssay (NCI).
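Step 1: Grow cells in 96-well plates. Step 2: Expose to compound for 48 hours at 5 concentrations. Step 3: Interpolate endpoints linearly; if unreached, use highest concentration. GI50 = concentration required for 50% inhibition of growth. TGI marks complete inhibition of growth.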

Experiments:
Assay in all cases: DTP human tumour cell line panel, 48 h
UACC-257 melanoma = test system: UACC-257 melanoma
TK-10 renal = test system: TK-10 renal
SF-295 CNS = test system: SF-295 CNS
NCI-H226 lung = test system: NCI-H226 lung
HT29 colon = test system: HT29 colon
SK-MEL-28 melanoma = test system: SK-MEL-28 melanoma
A549 NSCLC = test system: A549 NSCLC
BT-549 breast = test system: BT-549 breast
SR leukemia = test system: SR leukemia
PC-3 prostate = test system: PC-3 prostate
DU-145 prostate = test system: DU-145 prostate
KM12 colon = test system: KM12 colon
SK-MEL-5 melanoma = test system: SK-MEL-5 melanoma
MDA-MB-231 breast = test system: MDA-MB-231 breast
OVCAR-4 ovarian = test system: OVCAR-4 ovarian
ACHN renal = test system: ACHN renal
MDA-MB-435 = test system: MDA-MB-435
U251 CNS = test system: U251 CNS
SNB-19 CNS = test system: SNB-19 CNS
SK-MEL-2 melanoma = test system: SK-MEL-2 melanoma
HCT-116 colon = test system: HCT-116 colon
COLO 205 colon = test system: COLO 205 colon
IGROV1 ovarian = test system: IGROV1 ovarian
OVCAR-3 ovarian = test system: OVCAR-3 ovarian
T-47D breast = test system: T-47D breast
NCI-H460 lung = test system: NCI-H460 lung
HCT-15 colon = test system: HCT-15 colon
SNB-75 CNS = test system: SNB-75 CNS
OVCAR-5 ovarian = test system: OVCAR-5 ovarian
RPMI-8226 leukemia = test system: RPMI-8226 leukemia
SW-620 colon = test system: SW-620 colon
UACC-62 melanoma = test system: UACC-62 melanoma
M14 melanoma = test system: M14 melanoma
A498 renal = test system: A498 renal
MOLT-4 leukemia = test system: MOLT-4 leukemia
NCI/ADR-RES ovarian = test system: NCI/ADR-RES ovarian
K-562 leukemia = test system: K-562 leukemia
SF-268 CNS = test system: SF-268 CNS
MALME-3M melanoma = test system: MALME-3M melanoma
MCF7 breast = test system: MCF7 breast
SN12C renal = test system: SN12C renal
OVCAR-8 ovarian = test system: OVCAR-8 ovarian
HL-60(TB) leukemia = test system: HL-60(TB) leukemia
SK-OV-3 ovarian = test system: SK-OV-3 ovarian
EKVX NSCLC = test system: EKVX NSCLC
NCI-H23 lung = test system: NCI-H23 lung
HOP-62 NSCLC = test system: HOP-62 NSCLC
CCRF-CEM leukemia = test system: CCRF-CEM leukemia
UO-31 renal = test system: UO-31 renal
CAKI-1 renal = test system: CAKI-1 renal
HCC-2998 colon = test system: HCC-2998 colon
RXF 393 renal = test system: RXF 393 renal
SF-539 CNS = test system: SF-539 CNS
HOP-92 NSCLC = test system: HOP-92 NSCLC
HS 578T breast = test system: HS 578T breast
LOX IMVI melanoma = test system: LOX IMVI melanoma
NCI-H522 lung = test system: NCI-H522 lung
786-0 renal = test system: 786-0 renal

COc1ccc2nc(NNC(=O)c3cnccn3)c3cccn3c2c1
GI50 (UACC-257 melanoma): 0.689 µM
TGI (UACC-257 melanoma): 7.62 µM
GI50 (TK-10 renal): 0.329 µM
TGI (TK-10 renal): > 100 µM
GI50 (SF-295 CNS): 0.219 µM
TGI (SF-295 CNS): 4.35 µM
GI50 (NCI-H226 lung): 0.428 µM
TGI (NCI-H226 lung): 6.82 µM
GI50 (HT29 colon): 0.414 µM
TGI (HT29 colon): > 67.1 µM
GI50 (SK-MEL-28 melanoma): 0.382 µM
TGI (SK-MEL-28 melanoma): 29.8 µM
GI50 (A549 NSCLC): 0.269 µM
TGI (A549 NSCLC): 14.3 µM
GI50 (BT-549 breast): 0.857 µM
TGI (BT-549 breast): 21 µM
GI50 (SR leukemia): 0.121 µM
TGI (SR leukemia): > 100 µM
GI50 (PC-3 prostate): 0.227 µM
TGI (PC-3 prostate): > 100 µM
GI50 (DU-145 prostate): 0.283 µM
TGI (DU-145 prostate): 26.7 µM
GI50 (KM12 colon): 0.321 µM
TGI (KM12 colon): > 21 µM
GI50 (SK-MEL-5 melanoma): 0.537 µM
TGI (SK-MEL-5 melanoma): 4.39 µM
GI50 (MDA-MB-231 breast): 0.833 µM
TGI (MDA-MB-231 breast): 17.6 µM
GI50 (OVCAR-4 ovarian): 0.171 µM
TGI (OVCAR-4 ovarian): 5.07 µM
GI50 (ACHN renal): 0.114 µM
TGI (ACHN renal): 7.52 µM
GI50 (MDA-MB-435): 0.572 µM
TGI (MDA-MB-435): > 100 µM
GI50 (U251 CNS): 0.184 µM
TGI (U251 CNS): 7.16 µM
GI50 (SNB-19 CNS): 0.35 µM
TGI (SNB-19 CNS): 28 µM
GI50 (SK-MEL-2 melanoma): 0.688 µM
TGI (SK-MEL-2 melanoma): > 100 µM
GI50 (HCT-116 colon): 0.195 µM
TGI (HCT-116 colon): 5.26 µM
GI50 (COLO 205 colon): 0.331 µM
TGI (COLO 205 colon): 8.28 µM
GI50 (IGROV1 ovarian): 0.132 µM
TGI (IGROV1 ovarian): 2.32 µM
GI50 (OVCAR-3 ovarian): 0.236 µM
TGI (OVCAR-3 ovarian): > 22.3 µM
GI50 (T-47D breast): 0.433 µM
TGI (T-47D breast): 25.5 µM
GI50 (NCI-H460 lung): 0.134 µM
TGI (NCI-H460 lung): 3.88 µM
GI50 (HCT-15 colon): 0.0611 µM
TGI (HCT-15 colon): 2.46 µM
GI50 (SNB-75 CNS): 0.408 µM
TGI (SNB-75 CNS): 9.31 µM
GI50 (OVCAR-5 ovarian): 0.704 µM
TGI (OVCAR-5 ovarian): > 100 µM
GI50 (RPMI-8226 leukemia): 0.312 µM
TGI (RPMI-8226 leukemia): > 100 µM
GI50 (SW-620 colon): 0.315 µM
GI50 (UACC-62 melanoma): 0.278 µM
TGI (UACC-62 melanoma): 2.48 µM
GI50 (M14 melanoma): 0.208 µM
TGI (M14 melanoma): 2.85 µM
GI50 (A498 renal): 0.684 µM
TGI (A498 renal): 9.5 µM
GI50 (MOLT-4 leukemia): 0.201 µM
TGI (MOLT-4 leukemia): > 100 µM
GI50 (NCI/ADR-RES ovarian): 0.207 µM
TGI (NCI/ADR-RES ovarian): 2.09 µM
GI50 (K-562 leukemia): 0.351 µM
TGI (K-562 leukemia): > 100 µM
GI50 (SF-268 CNS): 0.227 µM
TGI (SF-268 CNS): 19.4 µM
GI50 (MALME-3M melanoma): 0.639 µM
TGI (MALME-3M melanoma): 15.4 µM
GI50 (MCF7 breast): 0.27 µM
TGI (MCF7 breast): 2.77 µM
GI50 (SN12C renal): 0.426 µM
TGI (SN12C renal): 13.9 µM
GI50 (OVCAR-8 ovarian): 0.303 µM
TGI (OVCAR-8 ovarian): > 47.3 µM
GI50 (HL-60(TB) leukemia): 0.27 µM
GI50 (SK-OV-3 ovarian): 0.54 µM
TGI (SK-OV-3 ovarian): 9.09 µM
GI50 (EKVX NSCLC): 0.268 µM
TGI (EKVX NSCLC): 18.9 µM
GI50 (NCI-H23 lung): 0.545 µM
TGI (NCI-H23 lung): > 36 µM
GI50 (HOP-62 NSCLC): 0.118 µM
TGI (HOP-62 NSCLC): 20 µM
GI50 (CCRF-CEM leukemia): 0.0919 µM
TGI (CCRF-CEM leukemia): > 100 µM
GI50 (UO-31 renal): 0.11 µM
TGI (UO-31 renal): 4.98 µM
GI50 (CAKI-1 renal): 0.248 µM
TGI (CAKI-1 renal): 15.5 µM
GI50 (HCC-2998 colon): 0.522 µM
TGI (HCC-2998 colon): > 52.5 µM
GI50 (RXF 393 renal): 0.663 µM
TGI (RXF 393 renal): 7.59 µM
GI50 (SF-539 CNS): 0.362 µM
TGI (SF-539 CNS): 10.6 µM
GI50 (HOP-92 NSCLC): 0.93 µM
TGI (HOP-92 NSCLC): 9.65 µM
GI50 (HS 578T breast): 2.45 µM
TGI (HS 578T breast): > 59.9 µM
GI50 (LOX IMVI melanoma): 0.177 µM
TGI (LOX IMVI melanoma): 1.78 µM
GI50 (NCI-H522 lung): 0.363 µM
TGI (NCI-H522 lung): 11.5 µM
GI50 (786-0 renal): 0.321 µM
TGI (786-0 renal): 5.61 µM
